# Reference: patent US5391540A, “Substituted pyridine compounds” (Rohm and Haas Company, priority 1993, dated 1995)
# Columns and labels:
# Format in all cases: in vivo
# [1] = test system: Barnyardgrass; assay: Pre-emergent herbicidal activity (Table A); conditions: Echinochloa crus-galli, pre-emergence, Bygr, 11.2 kg/ha, 10-14 days, read-out: herbicidal rating (% inhibition)
# Procedure, shortened: (§1)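 Seeds or perennial propagules set on compacted topsoil, then covered with soil mixed with a known amount of test compound applied in acetone or water carrier. Ratings assigned on a scale based on percent inhibition of each species.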
# [2] = test system: Cocklebur; assay: Pre-emergent herbicidal activity (Table A); conditions: Xanthium strumarium, pre-emergence, Cobu, 11.2 kg/ha, 10-14 days, read-out: herbicidal rating (% inhibition)
# Procedure, shortened: as §1
# [3] = test system: Downy Brome; assay: Pre-emergent herbicidal activity (Table A); conditions: Bromus tectorum, pre-emergence, Dobr, 11.2 kg/ha, 10-14 days, read-out: herbicidal rating (% inhibition)
# Procedure, shortened: as §1
# [4] = test system: Morningglory; assay: Pre-emergent herbicidal activity (Table A); conditions: Ipomoea, pre-emergence, Mogl, 11.2 kg/ha, 10-14 days, read-out: herbicidal rating (% inhibition)
# Procedure, shortened: as §1
# [5] = test system: Velvetleaf; assay: Pre-emergent herbicidal activity (Table A); conditions: Abutilon theophrasti, pre-emergence, Vele, 11.2 kg/ha, 10-14 days, read-out: herbicidal rating (% inhibition)
# Procedure, shortened: as §1
# [6] = test system: Yellow Nutsedge; assay: Pre-emergent herbicidal activity (Table A); conditions: Cyperus, pre-emergence, Yens, 11.2 kg/ha, 10-14 days, read-out: herbicidal rating (% inhibition)
# Procedure, shortened: as §1
# [7] = test system: Bygr; assay: plant injury after spraying emerged plants (Table D); set-up: scale not given here
# Text: (§2) Topsoil (silt loam) is sieved through a screen having 1.27 cm openings. […] This mixture is steam sterilized and then placed in aluminum pans 6.985 cm deep having ten holes in the bottom each 0.635 cm in diameter. The soil mixture is compacted to a depth of 1.27 cm. from the top of the pan. A predetermined number of seeds of each of several dicotyledonous and monocotyledonous annual plant species and/or vegetative propagules for the perennial plant species are placed on the soil and pressed into the soil surface. The seeds and/or vegetative propagules are covered with 1.27 cm of a mixture of 50% topsoil and 50% of a mixture of Canadian sphagnum peat moss, vermiculite and a wetting agent. The pans are then placed on a capillary mat on a greenhouse bench and subirrigated as needed.
# (§3) In the following Table D the legends used to identify the plant species are the same as those used in the preceding Table B.
# [8] = test system: Cobu; assay: as above; set-up: scale not given here
# Text: as §2, §3
# [9] = test system: Corn; assay: as above; set-up: scale not given here
# Text: as §2, §3
# [10] = test system: Grft; assay: as above; set-up: scale not given here
# Text: as §2, §3
# [11] = test system: Grso; assay: as above; set-up: scale not given here
# Text: as §2, §3
# [12] = test system: Lacg; assay: as above; set-up: scale not given here
# Text: as §2, §3
# [13] = test system: Mogl; assay: as above; set-up: scale not given here
# Text: as §2, §3
# [14] = test system: Sobe; assay: as above; set-up: scale not given here
# Text: as §2, §3
# [15] = test system: Whez; assay: as above; set-up: scale not given here
# Text: as §2, §3
# [16] = test system: Dobr; assay: as above
# Text: Topsoil (silt loam) is sieved through a screen having 1.27 cm openings. In some of the tests the soil was mixed with fertilizer (1225 g/cu. m of 12/5/9 containing isobutylidene diurea), while in other tests the fertilizer was omitted. This mixture is steam sterilized and then placed in aluminum pans 6.985 cm deep having ten holes in the bottom each 0.635 cm in diameter. The soil mixture is compacted to a depth of 1.27 cm. from the top of the pan. A predetermined number of seeds of each of several dicotyledonous and monocotyledonous annual plant species and/or vegetative propagules for the perennial plant species are placed on the soil and pressed into the soil surface. The seeds and/or vegetative propagules are covered with 1.27 cm of a mixture of 50% topsoil and 50% of a mixture of Canadian sphagnum peat moss, vermiculite and a wetting agent. The pans are then placed on a capillary mat on a greenhouse bench and subirrigated as needed. After the plants reach the desired stage (9 to 14 days, 1 to 3 true leaf stage), each pan (except the control pans) is removed to a spraying chamber and sprayed by means of an atomizer, operating at a spray pressure of 170.3 kPa ([…]) at the application rates noted in Table D. In the spray solution is an amount of an emulsifying agent mixture (35% butylamine salt of dodecylbenzenesulfonic acid and 65% tall oil condensed with ethylene oxide in the ratio of 11 mols of ethylene oxide/mol of tall oil) to give a spray solution or suspension. The spray solution or suspension contains a sufficient amount of the candidate chemical in order to give application rates of the active ingredient corresponding to those shown in Table D below while applying a total amount of solution or suspension equivalent to 1870 L/Ha (200 gallons/acre). The pans are returned to the greenhouse and watered as before and the injury to the plants as compared to the control pans is observed at approximately 10-14 days (usually 11 days).
# as §3
smiles,measurement,setting,value
"COC(=O)c1c(OC)nc(C(F)(F)F)c(C(=O)SC)c1C1CCC1 [Compound 137, 3-pyridinecarboxylic acid, 4-cyclobuty1-2-methoxy-5-[(methylthio)carbonyl]-6-(trifluoromethyl)-, methyl ester]",inhibition at 11200 g/ha,[1],75 to 100%
same,inhibition at 11200 g/ha,[2],75 to 100%
same,inhibition at 11200 g/ha,[3],75 to 100%
same,inhibition at 11200 g/ha,[4],75 to 100%
same,inhibition at 11200 g/ha,[5],75 to 100%
same,inhibition at 11200 g/ha,[6],75 to 100%
same,"plant injury rating, Bygr",[7]; 0.2803 kg/ha,1
same,"plant injury rating, Bygr",[7]; 1.1210 kg/ha,2
same,"plant injury rating, Bygr",[7]; 5.6050 kg/ha,2
same,"plant injury rating, Cobu",[8]; 0.2803 kg/ha,0
same,"plant injury rating, Cobu",[8]; 1.1210 kg/ha,1
same,"plant injury rating, Cobu",[8]; 5.6050 kg/ha,3
same,"plant injury rating, Corn",[9]; 0.2803 kg/ha,0
same,"plant injury rating, Corn",[9]; 1.1210 kg/ha,0
same,"plant injury rating, Corn",[9]; 5.6050 kg/ha,1
same,"plant injury rating, Grft",[10]; 0.2803 kg/ha,2
same,"plant injury rating, Grft",[10]; 1.1210 kg/ha,2
same,"plant injury rating, Grft",[10]; 5.6050 kg/ha,2
same,"plant injury rating, Grso",[11]; 0.2803 kg/ha,0
same,"plant injury rating, Grso",[11]; 1.1210 kg/ha,0
same,"plant injury rating, Grso",[11]; 5.6050 kg/ha,2
same,"plant injury rating, Lacg",[12]; 0.2803 kg/ha,3
same,"plant injury rating, Lacg",[12]; 1.1210 kg/ha,3
same,"plant injury rating, Lacg",[12]; 5.6050 kg/ha,3
same,"plant injury rating, Mogl",[13]; 0.2803 kg/ha,1
same,"plant injury rating, Mogl",[13]; 1.1210 kg/ha,1
same,"plant injury rating, Mogl",[13]; 5.6050 kg/ha,2
same,"plant injury rating, Sobe",[14]; 0.2803 kg/ha,0
same,"plant injury rating, Sobe",[14]; 1.1210 kg/ha,2
same,"plant injury rating, Sobe",[14]; 5.6050 kg/ha,2
same,"plant injury rating, Whez",[15]; 0.2803 kg/ha,0
same,"plant injury rating, Whez",[15]; 1.1210 kg/ha,0
same,"plant injury rating, Whez",[15]; 5.6050 kg/ha,0
same,"plant injury rating, Dobr",[16]; 0.2803 kg/ha,0
same,"plant injury rating, Dobr",[16]; 1.1210 kg/ha,1
same,"plant injury rating, Dobr",[16]; 5.6050 kg/ha,1
"COC(=O)c1c(OC)nc(C(F)(F)F)c(C(=O)n2cccn2)c1CC1CC1 [Compound 116, 3-pyridinecarboxylic acid, 4-(cyclopropylmethyl)-2-methoxy-5-(1H-pyrazo1-1-ylcarbonyl)-6-(trifluoromethyl)-, methyl ester]",inhibition at 11200 g/ha,[1],75 to 100%
same,inhibition at 11200 g/ha,[2],50 to 74%
same,inhibition at 11200 g/ha,[3],75 to 100%
same,inhibition at 11200 g/ha,[4],75 to 100%
same,inhibition at 11200 g/ha,[5],75 to 100%
same,inhibition at 11200 g/ha,[6],75 to 100%
same,"plant injury rating, Bygr",[7]; 0.0701 kg/ha,0
same,"plant injury rating, Bygr",[7]; 0.2803 kg/ha,0
same,"plant injury rating, Bygr",[7]; 1.1210 kg/ha,0
same,"plant injury rating, Bygr",[7]; 5.6050 kg/ha,1
same,"plant injury rating, Cobu",[8]; 0.0701 kg/ha,0
same,"plant injury rating, Cobu",[8]; 0.2803 kg/ha,1
same,"plant injury rating, Cobu",[8]; 1.1210 kg/ha,2
same,"plant injury rating, Cobu",[8]; 5.6050 kg/ha,2
same,"plant injury rating, Corn",[9]; 0.0701 kg/ha,0
same,"plant injury rating, Corn",[9]; 0.2803 kg/ha,0
same,"plant injury rating, Corn",[9]; 1.1210 kg/ha,2
same,"plant injury rating, Corn",[9]; 5.6050 kg/ha,2
same,"plant injury rating, Grft",[10]; 0.0701 kg/ha,0
same,"plant injury rating, Grft",[10]; 0.2803 kg/ha,0
same,"plant injury rating, Grft",[10]; 1.1210 kg/ha,0
same,"plant injury rating, Grft",[10]; 5.6050 kg/ha,1
same,"plant injury rating, Grso",[11]; 0.2803 kg/ha,0
same,"plant injury rating, Grso",[11]; 1.1210 kg/ha,0
same,"plant injury rating, Grso",[11]; 5.6050 kg/ha,1
same,"plant injury rating, Lacg",[12]; 0.0701 kg/ha,2
same,"plant injury rating, Lacg",[12]; 0.2803 kg/ha,2
same,"plant injury rating, Lacg",[12]; 1.1210 kg/ha,2
same,"plant injury rating, Lacg",[12]; 5.6050 kg/ha,2
same,"plant injury rating, Mogl",[13]; 0.0701 kg/ha,2
same,"plant injury rating, Mogl",[13]; 0.2803 kg/ha,1
same,"plant injury rating, Mogl",[13]; 1.1210 kg/ha,2
same,"plant injury rating, Mogl",[13]; 5.6050 kg/ha,2
same,"plant injury rating, Sobe",[14]; 0.0701 kg/ha,1
same,"plant injury rating, Sobe",[14]; 0.2803 kg/ha,1
same,"plant injury rating, Sobe",[14]; 1.1210 kg/ha,2
same,"plant injury rating, Sobe",[14]; 5.6050 kg/ha,2
same,"plant injury rating, Whez",[15]; 0.0701 kg/ha,0
same,"plant injury rating, Whez",[15]; 0.2803 kg/ha,0
same,"plant injury rating, Whez",[15]; 1.1210 kg/ha,0
same,"plant injury rating, Whez",[15]; 5.6050 kg/ha,0
same,"plant injury rating, Dobr",[16]; 0.0701 kg/ha,0
same,"plant injury rating, Dobr",[16]; 0.2803 kg/ha,0
same,"plant injury rating, Dobr",[16]; 1.1210 kg/ha,0
same,"plant injury rating, Dobr",[16]; 5.6050 kg/ha,0
